Experimental findings from ChEMBL document CHEMBL1811819, “Ethyl malonate amides: a diketo acid offspring fragment for HIV integrase inhibition” (Bioorg Med Chem, 2011) are described below.

By IC50 is commonly meant the concentration at which inhibition is half-maximal.

The target in the first assay is T1, Human immunodeficiency virus type 1 integrase (Human immunodeficiency virus 1, UniProt Q7ZJM1). In words: Inhibition of HIV1 integrase.
T1 sequence (Q7ZJM1 whole entry): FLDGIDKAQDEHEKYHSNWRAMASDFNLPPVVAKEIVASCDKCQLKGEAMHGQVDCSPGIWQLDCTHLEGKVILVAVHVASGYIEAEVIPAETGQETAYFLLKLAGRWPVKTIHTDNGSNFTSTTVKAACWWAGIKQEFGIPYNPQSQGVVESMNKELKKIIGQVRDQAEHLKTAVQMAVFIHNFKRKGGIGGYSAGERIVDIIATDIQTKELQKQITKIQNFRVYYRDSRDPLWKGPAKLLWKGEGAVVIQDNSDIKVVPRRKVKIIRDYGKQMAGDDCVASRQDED
Settings: not given; call rule not given here
The compound `Cc1ccc2ccc(C(=O)O)c(O)c2n1` gave a concentration for half-maximal inhibition (IC50) above 100 µM. Turning to `Cc1ccc2c(O)c(C(=O)O)ccc2n1`, the midpoint of inhibition, the IC50, lay at 47 µM.

Another assay deals with T1, Human immunodeficiency virus type 1 integrase. In words: Inhibition of HIV1 recombinant integrase 3'-processing and strand transfer activity using 21-mer U5B/U5A duplex oligonucleotides after 1 hr.
Settings: not given
For `CCOC(=O)CC(=O)Nc1ccc(C)cc1[N+](=O)[O-]`, the IC50 entry is reported as “Not Active”. On the same count and under the same terms, in the case of `CCOC(=O)CC(=O)Nc1ccccc1[N+](=O)[O-]` it was “Not Active”.

Still in this assay, the particulars now being: read-out: IC50.
Turning to `CCOC(=O)CC(=O)Nc1cc(C(=O)O)ccc1O`, the IC50 is above 300 µM. The same measure, in the same setting: in the case of `CCOC(=O)CC(=O)Nc1ccc(C)cc1` it was 50 µM; in that of `CCOC(=O)CC(=O)NCc1ccc(F)cc1`, above 100 µM; in that of `CCOC(=O)CC(=O)NS(=O)(=O)c1ccc(C)cc1`, 500 µM. Still for that read-out and setting: in the case of `Cc1ccc(NC(=O)CC(=O)O)c([N+](=O)[O-])c1` it was above 100 µM; in that of `CCOC(=O)CC(=O)Nc1ccc(C(=O)O)cc1`, 2 µM; in that of `CCOC(=O)CC(=O)Nc1ccc2cccc(O)c2n1`, 42 µM. The same measure, in the same setting: in the case of `CCOC(=O)CC(=O)Nc1c(Cl)cccc1Cl` it was above 100 µM.
